Test results from patent publication US10980811B2, “Reversal of fosfomycin resistance” (University of Pittsburgh—Of the Commonwealth System of …, priority 2017, dated 2021).
Converted amounts (≈) assume the structure as drawn. Read-outs that look alike come from different tables or passages of the source.

Columns and labels:
[1] = molecular target: FosA^KP (K. pneumoniae chromosomal FosA) (Klebsiella pneumoniae, UniProt W8UNW6); assay: FosA screening assay (monochlorobimane fluorescence, glutathione consumption); format: biochemical
[2] = molecular target: FosA (Klebsiella pneumoniae, UniProt W8UNW6); assay: Steady-state kinetics of ANY1 inhibition of FosA activity; format: biochemical; conditions: for Vmax: 0-50 mM fosfomycin
Method: Assays were carried out in a volume of 50 μl at 25° C. in 0.1 M sodium phosphate buffer (pH 8.0) containing 50 mM KCl, 25 μM MnCl2, 30 mM glutathione, and 0-50 mM fosfomycin. A 100 nM concentration of FosA was used to initiate the reaction, which was quenched after 20 minutes for FosA. Reactions were quenched by the addition of 150 μl methanol. Quenched reactions were diluted in 100 μl of 0.1 M sodium phosphate buffer (pH 8.0) containing 1 mM EDTA. Following the addition of 500 μM monochlorobimane, the concentration of glutathione was established by fluorescence spectroscopy using a SpectraMax M2 plate reader (Molecular Devices). A standard curve was prepared using 0 to 750 μM glutathione. Data were fitted to Michaelis Menten equations using SigmaPlot (Systat Software Inc., San Jose, Calif.).

[3] = molecular target: FosA^KP (chromosomal K. pneumoniae FosA) (Klebsiella pneumoniae, UniProt W8UNW6); assay: Isothermal titration calorimetry; format: binding
[4] = system: FosB enzyme from Gram-positive pathogens; assay: Isothermal titration calorimetry; format: binding; conditions: data not shown
[5] = molecular target: E. coli MurA (Escherichia coli, UniProt P0A749); assay: Isothermal titration calorimetry; format: binding; conditions: data not shown
[6] = system: fosfomycin-resistant, FosA-producing Enterobacter cloacae; assay: Growth inhibition of fosfomycin-resistant FosA-producing bacteria; format: cell-based; conditions: with 32 μg/mL fosfomycin; E. cloacae
Method: (§1) Each bacterial strain is resistant to fosfomycin and caries the species-specific fosfomycin-modifying gene encoding FosA.
(§2) An overnight culture of each antibiotic-resistant bacterium was grown in Mueller-Hinton Broth at 37° C., 150 rpm. The following day, the culture was diluted such that its OD600 was 0.2. The diluted culture was allowed to grow at 37° C. for 1 h. Following this, the culture was diluted such that its OD600 was 0.1. In a 96-well, round-bottom plate, three groups were set-up. […] Group three contained 10 two-fold dilutions of fosfomycin (0-1024 μg/mL). All groups contained 25% volume of the […] and 25 μg/mL glucose-6-phosphate. The plate was incubated at 37° C. for up to […]. The OD600 was assessed every […]. Data was analyzed in PRISM software or SigmaPlot® software (Systat Software Inc., San Jose, Calif.). The initial OD600 subtracted as background, and fit with a logistic growth curve.

[7] = system: fosfomycin-resistant, FosA-producing Escherichia coli; assay: as above; format: cell-based; conditions: with 32 μg/mL fosfomycin; E. coli
Method: as §1, §2

[8] = system: fosfomycin-resistant, FosA-producing Klebsiella pneumoniae; assay: as above; format: cell-based; conditions: with 32 μg/mL fosfomycin; K. pneumoniae
Method: as §1, §2

[9] = system: fosfomycin-resistant, FosA-producing Pseudomonas aeruginosa; assay: as above; format: cell-based; conditions: with 32 μg/mL fosfomycin; P. aeruginosa
Method: as §1, §2

[10] = system: fosfomycin-resistant Escherichia coli strain containing a deletion in the uhpT gene; assay: Growth curves of FosA-non-producing uhpT deletion strain; format: cell-based; conditions: absence and presence of 32 μg/mL fosfomycin; strain without FosA gene
Method: as §2
FIGS. 8A-8B show the growth curves of a fosfomycin-resistant Escherichia coli strain containing a deletion in the uhpT gene. […] Fosfomycin resistance is conferred by decreased transport of the antibiotic across the bacterial cell wall.

[11] = molecular target: FosA3 WT (Escherichia coli, UniProt D7UQM0); assay: Tryptophan fluorescence binding studies
[12] = molecular target: FosA3 T9A (Escherichia coli, UniProt D7UQM0, T9A); assay: Tryptophan fluorescence binding studies
[13] = molecular target: FosA3 S36A (Escherichia coli, UniProt D7UQM0, S36A); assay: Tryptophan fluorescence binding studies
[14] = molecular target: FosA3 Y39F (Escherichia coli, UniProt D7UQM0, Y39F); assay: Tryptophan fluorescence binding studies
[15] = molecular target: FosA3 Y65F (Escherichia coli, UniProt D7UQM0, Y65F); assay: Tryptophan fluorescence binding studies
[16] = molecular target: FosA3 R96A (Escherichia coli, UniProt D7UQM0, R96A); assay: Tryptophan fluorescence binding studies
[17] = molecular target: FosA3 Y131A (Escherichia coli, UniProt D7UQM0, Y131A); assay: Tryptophan fluorescence binding studies
[18] = molecular target: FosA3 Y131F (Escherichia coli, UniProt D7UQM0, Y131F); assay: Tryptophan fluorescence binding studies
[19] = system: carbapenemase (KPC)-producing K. pneumoniae clinical strain I1; assay: Bacterial growth curve analysis (Gompertz model); format: cell-based; conditions: for IC50: Klebsiella pneumoniae, read-out: IC50 for FOM (concentration decreasing maximum growth by 50%)
Method: Briefly, an overnight culture of K. pneumoniae I1 was diluted in Mueller-Hinton broth in a 96-well plate, incubated at 37° C. (150 rpm), and OD600 was assessed every 30 min.
The growth curves were modeled using a modified 3-parameter Gompertz equation (Zwietering et al., Appl Environ Microbiol 1990, 56(6)1875-81), which facilitated quantification of the lag time (min), growth rate (OD units/min) and maximum growth (OD units). […] The maximum growth value was determined from the curves in FIGS. 12A-12C using a 3-parameter Gompertz equation.

[20] = system: K. pneumoniae I1; assay: Time-kill experiments; format: cell-based; conditions: FOM with ANY1
[21] = system: KPC-producing clinical strain E. cloacae YDC612; assay: Growth curve analysis, FOM dose response with or without ANY1; format: cell-based; conditions: 112 μg/mL ANY1; P<0.05
[22] = system: KPC-producing clinical strain S. marcescens YDC760-2; assay: as above; format: cell-based; conditions: 112 μg/mL ANY1; P<0.05
[23] = system: FosA3-producing E. coli YD472; assay: as above; format: cell-based; conditions: 112 μg/mL ANY1; P=0.04
[24] = system: human peripheral blood mononuclear cells; assay: CellTiter-Glo luminescent cell viability assay; format: cell-based; conditions: 0-224 μg/mL ANY1; data not shown
Method: (§3) In all cases, cell viability was assessed using the CellTiter-Glo® luminescent cell viability assay.

[25] = system: HK2 cells; assay: CellTiter-Glo luminescent cell viability assay; format: cell-based, human; conditions: 0-224 μg/mL ANY1; data not shown
Method: as §3

[26] = system: OK cells; assay: CellTiter-Glo luminescent cell viability assay; format: cell-based, marsupial; conditions: 0-224 μg/mL ANY1; data not shown
Method: as §3

[27] = molecular target: FosA3 W34A (Escherichia coli, UniProt D7UQM0, W34A); assay: biochemical
[28] = molecular target: FosA3 W46A (Escherichia coli, UniProt D7UQM0, W46A); assay: biochemical
[29] = system: ESBL- and carbapenemase-producing Klebsiella pneumoniae; conditions: ESBL- and carbapenemase-producing K. pneumoniae; cited from earlier work
[30] = system: chromosomal FosA genes expressed in E. coli; conditions: cited from earlier work

Work on `O=c1[nH]n2cc(-c3n[nH]c(-c4cnc5c(Br)c(=O)[nH]n5c4)c3[N+](=O)[O-])cnc2c1Br` [ANY1, 3-bromo-6-[3-(3-bromo-2-oxo-1H-pyrazolo[1,5-a]pyrimidin-6-yl)-4-nitro-1H-pyrazol-5-yl]-1H-pyrazolo[1,5-a]pyrimidin-2-one] yielded an IC50 [1] of 5 µM, a Vmax ([2]; 5 μM ANY1) of 118.2 and a Vmax ([2]; 10 μM ANY1) of 107. The Vmax ([2]; 20 μM ANY1) was 154.6, the “Mode of inhibition with respect to glutathione” value ([2]; data not shown) was “non-competitive inhibitor” and the “Mode of inhibition with respect to fosfomycin binding to FosA” value ([2]; varying fosfomycin, 0-20 μM ANY1) was “competitive inhibitor”. For the same molecule, the Kd [3] was 180 ± 30 nM, the “Binding to FosB” value [4] was “did not bind” and the “Binding to E. coli MurA” value [5] was “did not bind”. The “Inhibition of FosA in the strain, reversing fosfomycin resistance (growth curves)” value (from here on “Inhibition of FosA in the strain”) [6] was “effectively inhibited FosA”, the “Inhibition of FosA in the strain” value [7] was “effectively inhibited FosA” and the “Inhibition of FosA in the strain” value [8] was “effectively inhibited FosA”. For the same molecule, the “Inhibition of FosA in the strain” value [9] was “effectively inhibited FosA”, the “Inhibition of bacterial growth” value [10] was “did not inhibit the bacterial growth” and the Kd [11] was 441 ± 50.1 nM. For the same molecule, the Kd [12] was 1580 ± 97.6 nM, the Kd [13] was 1360 ± 132 nM and the Kd [14] was 868 ± 201 nM. The Kd [15] was 784 ± 74.7 nM, the Kd [16] was 541 ± 90.1 nM and the Kd [17] was 4.88 ± 0.77 µM. For the same molecule, the Kd [18] was 551 ± 28 nM, the “Reduction of FOM IC50 by ANY1” value ([19]; 112 μg/mL ANY1, P<0.05) was ~6 fold and the “Bacterial growth when FOM was combined with ANY1” value ([19]; FOM 32, 64, 128 μg/mL with ANY1 14-224 μg/mL, dose dependent) was “significantly attenuated”. For the same molecule, the “Effect of ANY1 alone on growth” value ([19]; absence of FOM) was “no effect”, the “Effect of ANY1 on the activity of gentamicin” value ([19]; gentamicin ± ANY1 dose-response) was “did not alter the activity of gentamicin” and the “Increase in FOM activity (maximum growth)” value ([19]; highest ANY1 concentration tested) was ~6 fold. For the same molecule, the “Effect of ANY1 on FOM activity in time-kill” value [20] was “significantly increased FOM activity”, the “Decrease of the IC50 for FOM by ANY1” value [21] was 23 fold and the “Decrease of the IC50 for FOM by ANY1” value [22] was > 100 fold. For the same molecule, the “Decrease of the IC50 for FOM by ANY1” value [23] was 1.8 fold, the “Impact on cell viability” value [24] was “no impact on cell viability” and the “Impact on cell viability” value [25] was “no impact on cell viability”. The “Impact on cell viability” value [26] was “no impact on cell viability”, the Kd [27] was 2620 ± 205 nM and the Kd [28] was 2470 ± 111 nM.
In the case of `C[C@@H]1O[C@@H]1P(=O)(O)O` [FOM, Fosfomycin], the IC50 ([19]; absence of ANY1) is given as 144 ± 16.5 µg/mL (≈ 1.04 mM), the IC50 ([19]; presence of ANY1 (112 μg/mL)) is given as 23.2 ± 4.3 µg/mL and the MIC50 [29] is given as ~32 µg/mL (≈ 0.232 mM). The MIC90 [29] was ~128 µg/mL (≈ 0.927 mM), the MIC ([30]; FosA of Enterobacter aerogenes) was >1024 µg/mL and the MIC ([30]; FosA of Enterobacter cloacae) was >1024 µg/mL. For the same molecule, the MIC ([30]; FosA of Klebsiella oxytoca) was >1024 µg/mL, the MIC ([30]; FosA of Klebsiella pneumoniae) was >1024 µg/mL and the MIC ([30]; FosA of Morganella morganii) was >1024 µg/mL. For the same molecule, the MIC ([30]; FosA of Proteus mirabilis) was 9.8 µg/mL (≈ 0.071 mM), the MIC ([30]; FosA of Providencia rettgeri) was >1024 µg/mL and the MIC ([30]; FosA of Providencia stuartii) was >1024 µg/mL. For the same molecule, the MIC ([30]; FosA of Pseudomonas aeruginosa) was 16 µg/mL (≈ 0.116 mM) and the MIC ([30]; FosA of Serratia marcescens) was >1024 µg/mL.
